Reference: patent US20250154686A1, “COMPOUND LIBRARY” (CHUGAI SEIYAKU KABUSHIKI KAISHA, priority 2021, published 2025)

Target: T1, Bcl-2 protein (Recombinant Human Bcl-2 Protein) (Homo sapiens, UniProt P10415)
T1 construct: purchased Novus Biologicals NBP2-34889
Experiment: AS-MS evaluation of binding of the Example 4 mixture library (1200 compounds/well) to Bcl-2, ASMS ratio (%)
Protocol: DMSO solutions (prepared into approximately 0.58 mM based on calculation from the average molecular weight of each mixture) of 12 types of mixtures that could each contain 100 compounds, i.e., mixAI-B4J-01, mixAI-B1M-01, mixAI-B1K-01, mixAI-BIO-01, mixAI-B1A-01, mixAI-B3A-01, mixAI-B21-01, mixAI-B2L-01, mixAI-B2N-01, mixAI-B2A-01, mixAI-B2Q-01, and mixAI-B2R-01, shown in Table AI-03-B4J-01, Table AI-03-B1M-01, Table AI-03-B1K-01, Table AI-03-B10-01, Table AI-03-B1A-01, Table AI-03-B3A-01, Table AI-03-B21-01, Table AI-03-B2L-01, Table AI-03-B2N-01, Table AI-03-B2A-01, Table AI-03-B2Q-01, and Table AI-03-B2R-01 described in Example 4, were respectively dispensed to a total of 12 wells of MICROPLATE, 96-well, PP, V-BOTTOM (Greiner Bio-One International GmbH, 651201). 70 nL each from the 12 wells was collected into any one well using LABCYTE ECHO® 555 acoustic dispensing system (Beckman Coulter, Inc.) to prepare a sample solution in a mixed state of 1200 compounds (the presence of 1152 compounds was already identified when the mixtures were prepared in Example 4). Further, Bcl-2 protein (Novus Biologicals, NBP2-34889, Recombinant Human Bcl-2 Protein, Lot E60145051) (19.2 μL) prepared at 20.9 μM in advance using a Tris-HCl buffer (25 mM Tris-HCl, pH 7.4, 150 mM NaCl, 0.025% Tween-20, and 1 mM DTT) was added to the well containing the dispensed 1200 compounds (the presence of 1152 compounds was already identified when the mixtures were prepared in Example 4) (final compound concentration: 20 nM, final Bcl-2 concentration: 20 μM), and the plate was incubated at 23° C. for 1 hour in the dark. Subsequently, 200 μL of an assay buffer (25 mM Tris-HCl, pH 7.4, 150 mM NaCl, 0.025% Tween-20, and 1 mM DTT) was centrifuged three times at 2000×G at 4° C. for 2 minutes using 96-well MacroSpin column, P-2 Material (Harvard Bioscience, Inc., 74-5655) that had been allowed to swell to condition the 96-well MacroSpin column. Subsequently, 20 μL of the sample thus incubated was added to the 96-well MacroSpin column, P-2 Material after the completion of conditioning, and SEC treatment was performed by centrifugation at 2000×G for 2 minutes. 32 μL of a 1:1 mixed solution of acetonitrile and methanol (LC/MS grade, FUJIFILM Wako Pure Chemical Corp.) was added to a flow-through liquid from SEC, and the mixture was centrifuged at 1800×G at 4° C. for 5 minutes. The supernatant was used as analysis sample ASMS (A). By a similar operation, a sample prepared at 1200 compounds/well and supplemented with only a Tris-HCl buffer containing no Bcl-2 protein was incubated under the same conditions as above, and the same organic solvent as above was added thereto without 96-well MacroSpin column treatment. A supernatant obtained by a centrifugation operation was used as STD (B). Next, by a similar operation, a sample prepared at 1200 compounds/well and supplemented with only a Tris-HCl buffer containing no Bcl-2 protein was incubated under the same conditions as above and treated with 96-well MacroSpin column in the same manner as above, and the same organic solvent as above was added thereto. A supernatant obtained by a centrifugation operation was used as BK (C). These samples were measured by reverse-phase LC/MS.
Then, the samples A, B and C were analyzed for the 1200 compounds using TraceFinder 5.1 (Thermo Fisher Scientific Inc.) and CHANCE Software (in-house), and an ASMS ratio (%) was calculated according to the following expression.
Although m/z of the MS peaks was confirmed down to four decimal places, 0 at the decimal level may be omitted in the description in Table AJ-01. For example, “587.0000” is also referred to as “587”, “587.1000” is also referred to as “587.1”, “587.1200” is also referred to as “587.12”, and “587.1230” is also referred to as “587.123”.

[1] = AS-MS, Example 4 mixture library, Bcl-2, replicate n = 1
[2] = AS-MS, Example 4 mixture library, Bcl-2, replicate n = 2
[3] = replicate n = 1, mixture library, value belongs to the MS peak assigned to the compound
[4] = replicate n = 2, mixture library, value belongs to the MS peak assigned to the compound

T1 sequence (P10415 whole entry): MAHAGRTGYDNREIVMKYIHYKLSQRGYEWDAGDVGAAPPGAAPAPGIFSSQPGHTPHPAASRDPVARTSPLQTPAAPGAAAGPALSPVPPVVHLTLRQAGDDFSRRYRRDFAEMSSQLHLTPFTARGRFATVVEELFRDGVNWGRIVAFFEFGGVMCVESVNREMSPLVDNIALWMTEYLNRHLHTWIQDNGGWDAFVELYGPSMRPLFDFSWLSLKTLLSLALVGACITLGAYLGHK

Compound	ASMS ratio (%) n = 2 [2]	ASMS ratio (%) n = 1 [3]	ASMS ratio (%) n = 2 [4]	further results
CCOc1cccc(-c2cc(CN3CCN(c4ccc(C(=O)NS(=O)(=O)c5ccc(NCCSc6ccccc6)c(C(F)(F)F)c5)cc4)CC3)cc(OCC)c2)c1 [Compound B2R055-01, 4-[4-[[3-Ethoxy-5-(3-ethoxyphenyl)phenyl]methyl]piperazin-1-yl]-N-[4-(2-phenylsulfanylethylamino)-3-(trifluoromethyl)phenyl]sulfonylbenzamide]	6.3%			ASMS ratio (%) n = 1 [1]: −3.3%
CCOc1cccc(-c2ccc(C(=O)N3CCN(c4ccc(C(=O)NS(=O)(=O)C(C)(C)C)cc4)CC3)c3ccccc23)c1 [Compound B2L035-01, N-tert-Butylsulfonyl-4-[4-[4-(3-ethoxyphenyl)naphthalene-1-carbonyl]piperazin-1-yl]benzamide]		0.0%		
CCOc1cncc(-c2ccc(CN3CCN(c4ccc(C(=O)NS(=O)(=O)C(C)(C)C)cc4)CC3)cc2F)c1 [Compound B2L052-01, N-tert-Butylsulfonyl-4-[4-[[4-(5-ethoxypyridin-3-yl)-3-fluorophenyl]methyl]piperazin-1-yl]benzamide]		2.7%	1.0%	
CCOc1cccc(-c2ccc(CN3CCN(c4ccc(C(=O)NS(=O)(=O)c5ccc(NCCSc6ccccc6)c(C(F)(F)F)c5)nn4)CC3)c3ccccc23)c1 [Compound B2R091-01, 6-[4-[[4-(3-Ethoxyphenyl)naphthalen-1-yl]methyl]piperazin-1-yl]-N-[4-(2-phenylsulfanylethylamino)-3-(trifluoromethyl)phenyl]sulfonylpyridazine-3-carboxamide]	1.8%			ASMS ratio (%) n = 1 [1]: −3.5%
CCOc1cncc(-c2ccc(CN3CCN(c4ccc(C(=O)NS(=O)(=O)CCC(F)(F)F)nn4)CC3)cc2C)c1 [Compound B2N074-01, 6-[4-[[4-(5-Ethoxypyridin-3-yl)-3-methylphenyl]methyl]piperazin-1-yl]-N-(3,3,3-trifluoropropylsulfonyl)pyridazine-3-carboxamide]	0.0%			ASMS ratio (%) n = 1 [1]: 0.0%
CCOc1cccc(-c2ccc(CN3CCN(c4ccc(C(=O)Nc5ccc(OC)cc5)nn4)CC3)c3ccccc23)c1 [Compound B1O091-01, 6-[4-[[4-(3-Ethoxyphenyl)naphthalen-1-yl]methyl]piperazin-1-yl]-N-(4-methoxyphenyl)pyridazine-3-carboxamide]				ASMS ratio (%) n = 2 (AS-MS, mixture of 1200 compounds/well, Bcl-2 protein, replicate n = 2): −2.2%
CCOc1cncc(-c2ccccc2CN2CCN(c3ccc(C(=O)NS(=O)(=O)C(C)(C)C)cc3)CC2)c1 [Compound B2L046-01]		0.0%	0.0%	
CCOc1cncc(-c2cc(CN3CCN(c4ccc(C(=O)NS(C)(=O)=O)nn4)CC3)cc(OC(F)(F)F)c2)c1 [Compound B2I090-01, 6-[4-[[3-(5-Ethoxypyridin-3-yl)-5-(trifluoromethoxy)phenyl]methyl]piperazin-1-yl]-N-methylsulfonylpyridazine-3-carboxamide]		0.0%	0.0%	
CCOc1cccc(-c2ccc(CN3CCN(c4ccc(C(=O)NS(=O)(=O)C(C)(C)C)nn4)CC3)cc2F)c1 [Compound B2L077-01, N-tert-Butylsulfonyl-6-[4-[4-(3-ethoxyphenyl)-3-fluorophenyl]methyl]piperazin-1-yllpyridazine-3-carboxamide]		0.0%	0.0%	
CCOc1cncc(-c2cc(CN3CCN(c4ccc(C(=O)NS(=O)(=O)CCC(F)(F)F)cc4)CC3)cc(OC(C)C)c2)c1 [Compound B2N058-01]	0.0%			ASMS ratio (%) n = 1 [1]: 0.0%
CCOc1cncc(-c2cc(C(=O)N3CCN(c4ccc(C(=O)NS(=O)(=O)C(C)(C)C)cc4)CC3)cc(C(F)(F)F)c2)c1 [Compound B2L040-01, N-tert-Butylsulfonyl-4-[4-[3-(5-ethoxypyridin-3-yl)-5-(trifluoromethyl)benzoyl]piperazin-1-yl]benzamide]		−0.2%	1.0%	
CCOc1cccc(-c2cnn(-c3cc(C(=O)N4CCN(c5ccc(C(=O)NS(=O)(=O)CCC(F)(F)F)nn5)CC4)cc(C(F)(F)F)c3)c2)c1 [Compound B2N021-01, 6-[4-[3-[4-(3-Ethoxyphenyl)pyrazol-1-yl]-5-(trifluoromethyl)benzoyl]piperazin-1-yl]-N-(3,3,3-trifluoropropylsulfonyl)pyridazine-3-carboxamide]	0.0%			
CCOc1cncc(-c2ccc(CN3CCN(c4ccc(C(=O)NS(=O)(=O)C(C)(C)C)cc4)CC3)c3ccccc23)c1 [Compound B2L066-01, N-tert-Butylsulfonyl-4-[4-[[4-(5-ethoxypyridin-3-yl)naphthalen-1-yl]methyl]piperazin-1-yl]benzamide]		0.0%	0.0%	
CCOc1cccc(-c2cc(CN3CCN(c4ccc(C(=O)NS(=O)(=O)C(C)(C)C)cc4)CC3)cc(C(F)(F)F)c2)c1 [Compound B2L061-01, N-tert-Butylsulfonyl-4-[4-[[3-(3-ethoxyphenyl)-5-(trifluoromethyl)phenyl]methyl]piperazin-1-yl]benzamide]		4.6%	−11.1%	
CCOc1cncc(C#Cc2ccccc2C(=O)N2CCN(c3ccc(C(=O)NS(=O)(=O)CCC(F)(F)F)nn3)CC2)c1 [Compound B2N008-01, 6-[4-[2-[2-(5-Ethoxypyridin-3-yl)ethynyl]benzoyl]piperazin-1-yl]-N-(3,3,3-trifluoropropylsulfonyl)pyridazine-3-carboxamide]	−0.4%			ASMS ratio (%) n = 1 [1]: 0.0%
CCOc1cncc(-c2cc(OC)c(CN3CCN(c4ccc(C(=O)N(CC)CC)cc4)CC3)c(OC)c2)c1 [Compound B4J060-01, 4-[4-[[4-(5-Ethoxypyridin-3-yl)-2,6-dimethoxyphenyl]methyl]piperazin-1-yl]-N,N-diethylbenzamide]				ASMS ratio (%) n = 1 (Example 4 mixture library, 1200 compounds/well, Bcl-2 protein, replicate n = 1, value belongs to the MS peak assignable to the compound): 0.0%; ASMS ratio (%) n = 2 (Example 4 mixture library, 1200 compounds/well, Bcl-2 protein, replicate n = 2, value belongs to the MS peak assignable to the compound): 0.0%
CCOc1cncc(-c2ccc(C(=O)N3CCN(c4ccc(C(=O)NS(=O)(=O)C(C)(C)C)nn4)CC3)cc2C)c1 [Compound B2L004-01]		5.5%	9.3%	
CCOc1cncc(C#Cc2ccccc2CN2CCN(c3ccc(C(=O)NS(C)(=O)=O)nn3)CC2)c1 [Compound B2I096-01, 6-[4-[[2-[2-(5-Ethoxypyridin-3-yl)ethynyl]phenyl]methyl]piperazin-1-yl]-N-methylsulfonylpyridazine-3-carboxamide]		0.0%	0.0%	
